According to patent US20260199297A1, “FERROPTOSIS INDUCERS TO TREAT CANCER” (The University of Toledo, priority 2022, published 2026):
Read-outs that look alike come from different tables or passages of the source.

Columns and labels:
MDA-MB-231 cells = assay: Cytotoxicity (methylene blue cell viability), MDA-MB-231; assay type: cell-based
Experimental: (§1) Having synthesized the CETZOLE analogs, their cytotoxic activity was evaluated. […] NCI-H522 RV-GFP is the corresponding control with RV-GFP tag, but without SLC7A11 overexpression. […] The cytotoxicity screening was conducted as described previously.
(§2) Cell lines were cultured in a humidified atmosphere containing 10% CO2 in Dulbecco's modified Eagle's medium (Mediatech, Inc) supplemented with 10% fetal bovine serum (Atlanta Biologicals). Cell types used MEFs, HT1080 (human fibrosarcoma cells), NARF2 (osteosarcoma), WI-38 (human embryonic lung fibroblast), MDA MB 231 (breast cancer), HCT-116 (human colon), and NCI-H522 (Non-Small Cell Lung Cancer) cell lines. To determine viability throughout these examples, 5,000 cells were plated per well of a 96-well plate and drugs were added 1 day later. Cells were stained 1 to 3 days later with a saturated solution of methylene blue in 50% ethanol. Plates were rinsed and retained dye was quantified by spectrophotometry. Absorbance was normalized to DMSO and given as 1 or 100% for cell viability. Results are representative of at least two independent experiments. Statistical significance was assessed using the Student's t test. All commercially available chemicals were obtained from Cayman Chemicals unless otherwise noted.

[1] = test system: MEFs (Mouse Embryonic Fibroblasts); assay: Cytotoxicity on normal cell line MEFs; assay type: cell-based; details: read-out: Half maximal inhibitory concentration (IC50), Normal Cell Line Mefs
Experimental: (§3) To determine cytotoxicity at a therapeutically more relevant concentration, cells were treated at a single concentration of […] (FIG. 12).
as §2

HT-1080 cells = assay: Cytotoxicity (methylene blue cell viability), HT-1080; assay type: cell-based, human
Experimental: as §1, §2

[2] = test system: protein bands between 25 kD to 38 kD; assay: Competitive binding assay against probe PPd (in-gel fluorescence); set-up: competition of PPd-labelled protein bands, dose-dependent: dose or concentration left out as unconfirmed; details: for competition of PPd-labelled protein bands by known ferroptosis inducers: 20 μM concentration, bands 25 kD to 38 kD
NCI-H522 cells [3] = assay: Cytotoxicity (methylene blue cell viability), NCI-H522; assay type: cell-based, human
Experimental: as §1, §2

NARF2 cells = assay: Cytotoxicity (methylene blue cell viability), NARF2; assay type: cell-based, human; details: read-out: Half maximal inhibitory concentration (IC50), NARF2
Experimental: as §1, §2

WI38 cells = assay: Cytotoxicity on normal cell line WI38; assay type: cell-based, human
Experimental: as §3, §2

NCI-H522 cells [4] = assay: Flow cytometry BODIPY-C11 lipid ROS measurement; assay type: cell-based, human; details: for speed of cell death (area under graph): NCI-H522; for lipid peroxidation compared to DMSO: NCI-H522, BODIPY-C11, 3 hours
Experimental: The total cell counts are represented by the area under the graph.
NCI-H522 cells were seeded at 1.5×10^5 cells per 9-cm plate. The next media was replaced with fresh media before treated with drugs along with BODIPY581/591-C11 dye (0.5 μM) (Thermo Fisher). […], and resuspended in 2% FBS containing 1×PBS. Cells were analyzed in FITC channel using a BD LSR Fortessa FAC Scanner. Twenty thousand events per condition were analyzed from three independent samples. The experiments were performed twice, each time with triplicate samples (n=6). Collected data were processed with FlowJo v10 software. Lipid ROS measurement in TR9-7 or NARF2 cells was performed similarly at the indicated conditions as mentioned in the respective figure legends. Where appropriate, dead cells were excluded by gating. When gates were applied, they were identical across samples within an experiment.

[5] = test system: NCI-H522 GFP-SLC7A11 #8 cells; assay: Cytotoxicity (methylene blue cell viability), NCI-H522 clone overexpressing GFP-SLC7A11; assay type: cell-based, human
Experimental: as §1, §2

NCI-H522 cells [6] = assay type: cell-based; details: human, 3 days
From the text: FIGS. 10A-10C: Results of live cell imaging.
FIG. 16: Evaluation of ferroptosis-inducing character of CETZOLE probes. A three-day ferroptosis rescue assay of NCI-H522 cells treated with DMSO, 1, RSL3, and CETZOLE analogs, and liproxstatin-1 co-treatment, showing significant ferroptosis inducing probes.
The live cell montage images in FIG. 10A show notable ferroptosis-related morphological changes, such as membrane breakage and floating cell debris in the medium. The NCI-H522 cell viability improved overall when cells were co-treated with the radical scavenger liproxstatin-1 (FIG. 10C). […] To confirm this, flow-cytometry was performed to quantify lipid peroxidation using redox-active BODIPY-C11 (FIGS. 11A-11E).
Overall, CETZOLE probes do induce radical-mediated cell death and are therefore indeed ferroptotic agents.
as §2, with “noted. Compound CETZOLE 1 and the analogs were synthesized as highlighted.” for “noted.”

[7] = test system: NCI-H522 and HT-1080 cancer cell lines, WI38 and MEFs normal cell lines; assay: Selective cytotoxicity assay at a single concentration; assay type: cell-based; set-up: dose or concentration left out as unconfirmed; details: NCI-H522, HT-1080, WI38, MEFs
Experimental: Overall, WI38 cells were the most tolerant to the treatment, whereas MEF cells were partially tolerant and relatively less sensitive than both NCI-H522 and HT-1080 cells. To determine cytotoxicity at a therapeutically more relevant concentration, cells were treated at a single concentration of […] (FIG. 12).
as §2, with “noted. Compound CETZOLE 1 and the analogs were synthesized as highlighted.” for “noted.”

[8] = test system: NCI-H522, NCI-H522 GFP-SLC7A11 #8, NCI-H522 RV-GFP, HT-1080, NARF2 and MDA-MB 231 cell lines; assay: Cytotoxicity screening across the tested cell lines; assay type: cell-based; details: summary over all tested cell lines; read-out: IC50 values against the tested cell lines
Experimental: as §1, §2

NCI-H522 RV-GFP cells = assay: Cytotoxicity (methylene blue cell viability), NCI-H522 RV-GFP control clone; assay type: cell-based, human; details: Table 1, control clone with RV-GFP tag, read-out: Half maximal inhibitory concentration (IC50), NCI-H522 Rv-GFP
Experimental: as §1, §2

[9] = test system: 60 human cancer cell lines; assay: NCI 60 human cancer cell line assay, single dose; assay type: cell-based; details: single dose of 10 μM, 60 cell lines
Experimental: The cell lines used in this assay belonged to leukemia, non-small-cell lung cancer, colon cancer, CNS cancer, melanoma, ovarian cancer, renal cancer, prostate cancer, and breast cancer. The compounds were first tested at a single dose of 10 μM.

`C#Cc1nc(C2=C(C)C(O)CC2)cs1` (racemic) [CETZOLE 1, 3-(2-Ethynylthiazol-4-yl)-2-methylcyclopent-2-en-1-ol, reference compound] showed an IC50 (MDA-MB-231 cells; Homo sapiens, MDA-MB-231, read-out: Half maximal inhibitory concentration (IC50), MDA-MB-231) of 6.28 ± 0.73 µM, an IC50 (MDA-MB-231 cells; Homo sapiens, MDA-MB-231, read-out: IC50, MDA-MB-231) of 3.2 ± 0.2 µM and an IC50 ([1]; Mus musculus, Fibroblast) of 2.41 ± 0.98 µM. The IC50 (HT-1080 cells; Homo sapiens, HT-1080, read-out: Half maximal inhibitory concentration (IC50), Cancer Cell Line HT1080) was 3.07 ± 1.3 µM, the IC50 (HT-1080 cells; Homo sapiens, HT-1080, read-out: Half maximal inhibitory concentration (IC50), HT-1080) was 3.07 ± 1.3 µM and the IC50 (HT-1080 cells; Homo sapiens, HT-1080, read-out: IC50, HT-1080) was 0.96 ± 0.11 µM. For the same compound, the “competition of PPd-labelled protein bands by known ferroptosis inducers” value [2] was “compete out the same protein bands”, the “competition of PPd-labelled protein bands, dose-dependent” value ([2]; three bands 25 kD to 38 kD) was “completely competed out” and the IC50 (NCI-H522 cells [3]; Homo sapiens, NCI-H522, read-out: Half maximal inhibitory concentration (IC50), Cancer Cell Line NCI-H522) was 2.5 ± 0.32 µM. It also gave an IC50 (NCI-H522 cells [3]; Homo sapiens, NCI-H522, read-out: Half maximal inhibitory concentration (IC50), NCI-H522) of 2.56 ± 0.93 µM, an IC50 (NCI-H522 cells [3]; Homo sapiens, NCI-H522, read-out: IC50, NCI-H522) of 2.5 ± 0.32 µM and an IC50 (NARF2 cells; Homo sapiens) of 14.9 ± 1.3 µM. For the same compound, the IC50 (WI38 cells; Homo sapiens, WI-38, read-out: Half maximal inhibitory concentration (IC50), Normal Cell Line WI38) was 2.51 ± 0.04 µM, the “speed of cell death (area under graph)” value (NCI-H522 cells [4]) was “induced slower cell death” and the “lipid peroxidation compared to DMSO” value (NCI-H522 cells [4]) was “induced lipid peroxidation”. It also gave an IC50 ([5]; Homo sapiens, NCI-H522, read-out: Half maximal inhibitory concentration (IC50), NCI-H522 GFP-SCL7A11 #8) of 10.3 ± 3.6 µM.
With `C#CCCC(=O)Nc1ccc(C(=O)c2ccc(NC(=O)CO/N=C3\CC(c4csc(C#C)n4)=C(C)C3O)cc2)cc1` (stereo not drawn) [PPe, (E)-N-(4-(4-(2-(((4-(2-Ethynylthiazol-4-yl)-2-hydroxy-3-methylcyclopent-3-en-1-ylidene)amino)oxy)acetamido)benzoyl)phenyl)pent-4-ynamide] the IC50 (MDA-MB-231 cells; Homo sapiens, MDA-MB-231, Table 3, probes and negative controls, read-out: IC50, MDA-MB-231) was 1.33 ± 0.02 µM, the “cell viability on liproxstatin-1 co-treatment (rescue)” value (NCI-H522 cells [6]) was 45% and the IC50 (HT-1080 cells; Homo sapiens, HT-1080, Table 3, probes and negative controls, read-out: IC50, HT-1080) was 1.2 ± 0.01 µM. It also gave an IC50 (NCI-H522 cells [3]; Homo sapiens, NCI-H522, Table 3, probes and negative controls, read-out: IC50, NCI-H522) of 2.6 ± 0.11 µM.
With `COC(=O)c1ccc([C@@H]2c3[nH]c4ccccc4c3C[C@@H](C(=O)OC)N2C(=O)CCl)cc1` [RSL3, reference compound] the IC50 (MDA-MB-231 cells; Table 1, MDA-MB-231 breast cancer cell line, read-out: Half maximal inhibitory concentration (IC50), MDA-MB-231) was 0.22 ± 0.02 µM, the IC50 ([1]; Table 2, Mouse Embryonic Fibroblasts) was 0.04 ± 0.02 µM and the “cell death at a single concentration” value [7] was “killed all cell lines indiscriminately”. For the same compound, the IC50 (HT-1080 cells; Table 1, HT-1080 fibrosarcoma cell line, read-out: Half maximal inhibitory concentration (IC50), HT-1080) was 0.14 ± 0.08 µM, the IC50 (HT-1080 cells; Table 2, read-out: Half maximal inhibitory concentration (IC50), Cancer Cell Line HT1080) was 0.14 ± 0.1 µM and the “competition of PPd-labelled protein bands by known ferroptosis inducers” value [2] was “compete out the same protein bands”. The IC50 (NCI-H522 cells [3]; Table 1, NCI-H522 cancer cell line, read-out: Half maximal inhibitory concentration (IC50), NCI-H522) was 1.1 ± 0.89 µM, the IC50 (NCI-H522 cells [3]; Table 2, read-out: Half maximal inhibitory concentration (IC50), Cancer Cell Line NCI-H522) was 1.1 ± 0.89 µM and the IC50 (NARF2 cells; Table 1, NARF2 osteosarcoma cells) was 2.46 ± 0.76 µM. The IC50 (WI38 cells; Table 2, lung tissue fibroblast, read-out: Half maximal inhibitory concentration (IC50), Normal Cell Line WI38) was 0.05 ± 0.01 µM, the IC50 [8] was 0.14 to 2.84 µM and the IC50 (NCI-H522 RV-GFP cells) was 0.31 ± 0.04 µM. The IC50 ([5]; Table 1, NCI-H522 clone overexpressing GFP-tagged SLC7A11, read-out: Half maximal inhibitory concentration (IC50), NCI-H522 GFP-SCL7A11 #8) was 2.84 ± 0.9 µM.
In the case of `C#Cc1nc(C2=C(C)/C(=N/OCc3ccccc3)CC2)cs1` [compound 23, (E)-3-(2-Ethynylthiazol-4-yl)-2-methylcyclopent-2-en-1-one O-benzyl oxime], the IC50 (MDA-MB-231 cells; Homo sapiens, Table 1, MDA-MB-231 breast cancer cell line, read-out: Half maximal inhibitory concentration (IC50), MDA-MB-231) is reported as 4.17 ± 0.39 µM, the “cell viability on liproxstatin-1 co-treatment (rescue)” value (NCI-H522 cells [6]) is reported as 85% and the IC50 ([1]; Fibroblast, Table 2, Mouse Embryonic Fibroblasts) is reported as 1.09 ± 0.46 µM. The “cell death at a single concentration” value [7] was “did not induce cell death”, the mean percentage growth [9] was 27.24 and the IC50 (HT-1080 cells; Homo sapiens, HT-1080, Table 2, read-out: Half maximal inhibitory concentration (IC50), Cancer Cell Line HT1080) was 0.81 ± 0.14 µM. It also gave an IC50 (HT-1080 cells; Homo sapiens, Table 1, HT-1080 fibrosarcoma cell line, read-out: Half maximal inhibitory concentration (IC50), HT-1080) of 0.81 ± 0.14 µM, an IC50 (NCI-H522 cells [3]; Homo sapiens, NCI-H522, Table 2, read-out: Half maximal inhibitory concentration (IC50), Cancer Cell Line NCI-H522) of 1.36 ± 0.11 µM and an IC50 (NCI-H522 cells [3]; Homo sapiens, Table 1, NCI-H522 cancer cell line, read-out: Half maximal inhibitory concentration (IC50), NCI-H522) of 1.36 ± 0.11 µM. For the same compound, the IC50 (NARF2 cells; Homo sapiens, Table 1, NARF2 osteosarcoma cells) was 19.3 ± 5.9 µM, the IC50 (WI38 cells; Homo sapiens, WI-38, Table 2, lung tissue fibroblast, read-out: Half maximal inhibitory concentration (IC50), Normal Cell Line WI38) was 2.51 ± 0.81 µM and the “speed of cell death (area under graph)” value (NCI-H522 cells [4]) was “induced slower cell death”. The “lipid peroxidation compared to DMSO” value (NCI-H522 cells [4]) was “induced lipid peroxidation”, the IC50 (NCI-H522 RV-GFP cells; Homo sapiens, NCI-H522) was 2.54 ± 0.44 µM and the IC50 ([5]; Homo sapiens, Table 1, NCI-H522 clone overexpressing GFP-tagged SLC7A11, read-out: Half maximal inhibitory concentration (IC50), NCI-H522 GFP-SCL7A11 #8) was 2.41 ± 1.16 µM.
